In ChEMBL document CHEMBL1156829 (Proc Natl Acad Sci U S A, 2008):

How the values were obtained:
Plasmodium falciparum [1] = assay: NOVARTIS: Inhibition of Plasmodium falciparum 3D7 (drug-susceptible) proliferation in erythrocyte-based infection assay; format: functional, organism-based; conditions: Plasmodium falciparum, 3D7
Plasmodium falciparum [2] = assay: NOVARTIS: Inhibition of Plasmodium falciparum W2 (drug-resistant) proliferation in erythrocyte-based infection assay; format: functional, organism-based; conditions: Plasmodium falciparum, W2; read-out: EC50
[3] = NOVARTIS: Cytotoxicity against human hepatocellular carcinoma cell line (Huh7); format: toxicity, cell-based, Huh-7; conditions: Huh7 cells (hepatocellular carcinoma cell line)

Row | SMILES | EC50 (Plasmodium falciparum [1]) | EC50 (Plasmodium falciparum [2]) | CC50 [3]
1 | Cc1nc2ccc(Br)cc2c(O)c1CC(C)C | 2730 nM | 2530 nM | > 100000 nM
2 | COc1ccc2nc(NC(N)=NC(=O)Nc3ccccc3)nc(C)c2c1 | 688 nM | 896 nM | 34800 nM
3 | CCCN(CCC)CCCNc1ccc(C(=O)Nc2ccc(C)c(F)c2)cc1[N+](=O)[O-] | 146 nM | 268 nM | 10600 nM
4 | COc1ccc(C(=O)Nc2nonc2-c2ccc(OC)c(OC)c2)cc1Cl | 1780 nM | 2540 nM | > 100000 nM
5 | CSc1nc(N)c2c3c(sc2n1)CCCC3 | > 1250 nM | > 253 nM | > 10000 nM
6 | O=C(NCc1ccccc1)c1cnc(NCCCn2ccnc2)nc1NCCc1ccccc1 | 205 nM | 320 nM | 12800 nM
7 | CCOc1ccc2[nH]c(=O)c(CN(CCN3CCCC3)C(=S)Nc3ccc(F)cc3)cc2c1 | 1820 nM | 2510 nM | > 100000 nM
8 | O=C(O)CSc1ccc(C(=O)NC2CCCCNC2=O)cn1 (centres undefined) | > 1490 nM | 263 nM | > 10000 nM
9 | COc1ccc(C(=O)NCCc2ccc(C)cc2)cc1OC1CCN(C(C)=O)CC1 | > 9060 nM | 2520 nM | > 100000 nM
10 | COc1ccccc1C=CC1=NC(=Cc2ccc(SC)cc2)C(=O)O1 | 2040 nM | 2510 nM | > 100000 nM
11 | Cc1ccc(-c2nnc(NCc3ccccc3)c3ccccc23)cc1S(=O)(=O)NCC1CCCO1 (centres undefined) | 1850 nM | 2570 nM | > 100000 nM
12 | CCOc1ccc2nc(C)cc(Nc3ccc(C)c(Cl)c3)c2c1 | 240 nM | 348 nM | 13600 nM
13 | Clc1ccccc1CN1CCc2nc(N3CCCCC3)sc2C1 | 594 nM | 2630 nM | > 100000 nM
14 | C=CCN1C(=O)/C(=C\c2ccccc2)C(C(=O)OC)=C1C | 589 nM | 262 nM | > 10000 nM
15 | COc1ccc(C(=O)N2c3cc(C)ccc3C(Nc3ccc(C)cc3)CC2C)cc1 (centres undefined) | > 12500 nM | 2620 nM | > 100000 nM
16 | COc1ccc(C2Nc3ccc(C(C)=O)cc3C3C=CCC32)cc1[N+](=O)[O-] (centres undefined) | 2150 nM | 2570 nM | > 100000 nM
17 | CCCCOc1ccc(C2C3CCCC=C3C(C#N)=C(N)C2(C#N)C#N)cc1 (centres undefined) | 3470 nM | 1480 nM | 57700 nM
18 | Fc1ccc2[nH]c3c(N4CCN(C(c5ccccc5)c5ccccc5)CC4)ncnc3c2c1 | 438 nM | 378 nM | 14800 nM
19 | COc1ccc(Nc2cc(C)nc(NCc3ccccc3)n2)cc1 | 151 nM | 427 nM | 16700 nM
20 | CCN1CCN(c2nc3ccccn3c(=O)c2/C=C2\SC(=S)N(C(C)C)C2=O)CC1 | 717 nM | 260 nM | > 10000 nM
21 | CCC(=O)NC(c1cccc([N+](=O)[O-])c1)c1ccc2cccnc2c1O (centres undefined) | 3420 nM | 2600 nM | > 100000 nM
22 | COc1ccc(-n2c(SC)nc3sc4c(c3c2=O)CCN(Cc2ccccc2)C4)cc1 | 2480 nM | 2550 nM | > 100000 nM
23 | COc1cc(-c2nc(-c3ccc(Sc4ccccc4)cc3)c(-c3ccccc3)[nH]2)cc(OC)c1O | 1280 nM | 1640 nM | 64300 nM
24 | COc1ccc2nc3cc(Cl)ccc3c(NCCN(CCN)CCN)c2c1 | 808 nM | 254 nM | > 10000 nM
25 | OC(COc1ccccc1CNCCN1CCCC1)CN1CCc2ccccc2C1 (centres undefined) | 2200 nM | 1660 nM | 63400 nM
26 | CCc1ccc(C(=O)Oc2ccccc2-c2nc3ccccn3c2NC(C)(C)CC(C)(C)C)cc1 | 1760 nM | 259 nM | > 10000 nM
27 | CC1CC(N(C(=O)c2ccc(Cl)cc2Cl)c2ccccc2)c2ccccc2N1C(=O)c1ccc(Cl)cc1 (centres undefined) | 2780 nM | 2530 nM | > 100000 nM

Row | SMILES | EC50 (Plasmodium falciparum [1]) | EC50 (Plasmodium falciparum [2]) | CC50 [3]
28 | CCC(C)Nc1nc(NC(C)CC)nc(N2CCCCCC2)n1 (centres undefined) | 479 nM | 382 nM | 14700 nM
29 | Cc1ccc2[nH]c3c(NCCN(C(C)C)C(C)C)ncnc3c2c1 | 306 nM | 420 nM | 16300 nM
30 | CCOC(=O)N1CCC(N2C(=O)c3ccccc3C2Nc2ccc(OCC)cc2)CC1 (centres undefined) | > 12500 nM | 2580 nM | > 100000 nM
31 | c1ccc(-c2cc(N3CCN(c4ccccn4)CC3)nc(-c3ccccn3)n2)nc1 | 72.9 nM | 76.7 nM | 3030 nM
32 | CN(C)CCn1cnc2sc3c(c2c1=O)CCC(NCc1cccc(Cl)c1)C3 (centres undefined) | 748 nM | 479 nM | 18900 nM
33 | CCCCC(CC)C(=O)N(C)CCCNc1ccnc2cc(Cl)ccc12 (centres undefined) | 514 nM | 233 nM | > 9260 nM
34 | COc1ccc([N+](=O)[O-])cc1NC(=O)C(C)Nc1ccc(N(C)C)cc1 (centres undefined) | 343 nM | 860 nM | 34200 nM
35 | O=C(NCc1ccccc1)C(c1ccc(F)cc1)N(Cc1ccco1)C(=O)c1cnccn1 (centres undefined) | > 8940 nM | 2520 nM | > 100000 nM
36 | COc1ccccc1CNC(=O)CCC1N=C2c3ccccc3N=C(SCC(=O)Nc3ccc(F)cc3)N2C1=O (centres undefined) | 5290 nM | 2510 nM | > 100000 nM
37 | CCC(c1nc2ccccc2c(=O)n1-c1ccccc1OC)N(CCc1ccccc1)C(=O)c1ccc(C)cc1 (centres undefined) | 418 nM | 174 nM | > 6690 nM
38 | Nc1cccc(C(=O)Nc2ccc(Oc3cccc(Oc4ccc(NC(=O)c5cccc(N)c5)cc4)c3)cc2)c1 | > 12000 nM | 2550 nM | > 100000 nM
39 | CCCC(CCC)C(=O)Nc1ccc2c(c1)N(C(=O)CCCl)c1ccccc1CC2 | 416 nM | 2580 nM | > 100000 nM
40 | Cc1cc(NCCCN(C)C)c2ccccc2n1 | 716 nM | 1380 nM | 53200 nM
41 | COc1ccc(C2C(C(=O)c3ccccc3)=C(O)C(=O)N2c2cccc(Cl)c2)c(OC)c1 (centres undefined) | > 12500 nM | 2590 nM | > 100000 nM
42 | Cc1ccc(C)n1-c1ccc(N(C)C)cc1 | 2930 nM | 1330 nM | 50900 nM
43 | CCCCN1C(=O)N(c2ccccc2C)C(C)(O)CC1(C)C (centres undefined) | > 1520 nM | > 261 nM | > 10000 nM
44 | CCCCCCc1ccc(/C(C=[N+](C)C)=C\N(C)C)cc1 | 335 nM | 260 nM | > 10000 nM
45 | CCCC[C@@H](C)C(O)[C@H]1C(=O)N[C@@H](CC)C(=O)N(C)CC(=O)N(C)[C@@H](CC(C)C)C(=O)N[C@@H](C(C)C)C(=O)N(C)[C@@H](CC(C)C)C(=O)N[C@@H](C)C(=O)N[C@H](C)C(=O)N(C)[C@@H](CC(C)C)C(=O)N(C)[C@@H](CC(C)C)C(=O)N(C)[C@@H](C(C)C)C(=O)N1C (some centres undefined) | 859 nM | 251 nM | > 10000 nM
46 | O=C(NCCN(CCNc1ccnc2cc(Cl)ccc12)CCNc1ccnc2cc(Cl)ccc12)C1CCC1 | 207 nM | 255 nM | > 10000 nM
47 | O=C(O)CC/C(=C1/C=C(c2ccc(Cl)cc2)NC1=O)c1ccc(Cl)cc1 | > 1650 nM | 256 nM | > 10000 nM
48 | O=C(Nc1ccc(-c2cn3cccnc3n2)cc1)c1ccccc1I | > 12500 nM | 2620 nM | > 100000 nM
49 | CCCCn1nccc1Nc1cc(C)c(C#N)c2nc3ccccc3n12 | 4420 nM | 2610 nM | > 100000 nM
50 | Cc1cccn2c(NCc3ccccc3)c(-c3ccccc3OC(=O)CCCCl)nc12 | 781 nM | 253 nM | > 10000 nM
51 | O=C(NCCCNC(=O)Nc1cccc(C2=NCCN2)c1)Nc1cccc(C2=NCCN2)c1 | 326 nM | 256 nM | > 10000 nM
52 | C=CC1CN2CCC1CC2[C@@H](OC(=O)/C=C/c1ccc(Cl)cc1)c1ccnc2ccc(OC)cc12 (some centres undefined) | 272 nM | 252 nM | > 10000 nM
53 | Cc1ccc(NC(=O)C2CC3c4ccccc4C2c2ccccc23)cc1 (centres undefined) | > 12500 nM | 2550 nM | > 100000 nM
